Reference: US20230257415A1, “COMPOUNDS FOR TREATING CNS DISORDERS” (SAGE THERAPEUTICS, INC., priority 2019, published 2023)

Target: GABAA receptor
Experiment: [35S]-TBPS binding assay, rat brain cortical membranes, in the presence of GABA
Conditions: inhibition of 3 nM [35S]-TBPS binding, 5 mM GABA, 90 min, room temp
Procedure: [35S]-t-Butylbicyclophosphorothionate (TBPS) binding assays using rat brain cortical membranes in the presence of 5 mM GABA has been described (Gee et al, J. Pharmacol. Exp. Ther. 1987, 241, 346-353; Hawkinson et al, Mol. Pharmacol. 1994, 46, 977-985; Lewin, A.H et al., Mol. Pharmacol. 1989, 35, 189-194).
Briefly, cortices are rapidly removed following decapitation of carbon dioxide-anesthetized Sprague-Dawley rats (200-250 g). The cortices are homogenized in 10 volumes of ice-cold 0.32 M sucrose using a glass/teflon homogenizer and centrifuged at 1500 x g for 10 min at 4° C. The resultant supernatants are centrifuged at 10,000 x g for 20 min at 4° C. to obtain the P2 pellets. The P2 pellets are resuspended in 200 mM NaCl/50 mM Na-K phosphate pH 7.4 buffer and centrifuged at 10,000 x g for 10 min at 4° C. This washing procedure is repeated twice and the pellets are resuspended in 10 volumes of buffer. Aliquots ([…]) of the membrane suspensions are incubated with 3 nM [^35S]-TBPS and […] aliquots of test drug dissolved in dimethyl sulfoxide (DMSO) (final 0.5%) in the presence of 5 mM GABA. The incubation is brought to a final volume of 1.0 mL with buffer. […] Following a 90 min incubation at room temp, the assays are terminated by filtration through glass fiber filters (Schleicher and Schuell No. 32) using a cell harvester (Brandel) and rinsed three times with ice-cold buffer. Filter bound radioactivity is measured by liquid scintillation spectrometry. Non-linear curve fitting of the overall data for each drug averaged for each concentration is done using Prism (GraphPad). […] The concentration of test compound producing 50% inhibition (IC50) of specific binding and the maximal extent of inhibition (Imax) are determined for the individual experiments with the same model used for the overall data and then the means ± SEM.s of the individual experiments are calculated.
Various compounds are or can be screened to determine their potential as modulators of [^35S]-TBPS binding in vitro. These assays are or can be performed in accordance with the above.

Compound | IC50
C[C@@H](Nc1ccc(C#N)cc1)[C@H]1CCC[C@H]2[C@@H]3CC[C@@H]4C[C@](C)(O)CC[C@@H]4C3CC[C@]12C (stereo partly drawn) [Example 51, 4-(((1R)-1-((1S,4aS,4bR,6aR,8R,10aS,12aS)-8-hydroxy-8,12a-dimethyloctadecahydrochrysen-1-yl)ethyl)amino)benzonitrile] | < 100 nM
CCOC[C@@]1(O)CC[C@@H]2C3CC[C@]4(C)[C@@H]([C@@H](C)NC(=O)c5ccc(F)cc5F)CCC[C@H]4[C@@H]3CC[C@@H]2C1 (stereo partly drawn) [Example 52, N-((1R)-1-((1S,4aS,4bR,6aR,8R,10aS,12aS)-8-(ethoxymethyl)-8-hydroxy-12a-methyloctadecahydrochrysen-1-yl)ethyl)-2,4-difluorobenzamide] | 100 to 1000 nM
CCOC[C@@]1(O)CC[C@@H]2C3CC[C@]4(C)[C@@H]([C@H](C)NC(=O)c5ccc(F)cc5F)CCC[C@H]4[C@@H]3CC[C@@H]2C1 (stereo partly drawn) [Example 53, N-((1S)-1-((1S,4aS,4bR,6aR,8R,10aS,12aS)-8-(ethoxymethyl)-8-hydroxy-12a-methyloctadecahydrochrysen-1-yl)ethyl)-2,4-difluorobenzamide] | 100 to 1000 nM
CC[C@]12CC[C@H]3[C@@H](CC[C@@H]4C[C@](C)(O)CC[C@@H]43)[C@@H]1CCC[C@@H]2[C@H](C)NC(=O)c1ccc(C#N)cc1 [Example 54, 4-cyano-N-((S)-1-((1S,4aS,4bR,6aR,8R,10aS,10bR,12aS)-12a-ethyl-8-hydroxy-8-methyloctadecahydrochrysen-1-yl)ethyl)benzamide] | 100 to 1000 nM
CCOC[C@@]1(O)CC[C@@H]2C3CC[C@]4(C)[C@@H]([C@H](C)NC(=O)c5ccc(C#N)cc5F)CCC[C@H]4[C@@H]3CC[C@@H]2C1 (stereo partly drawn) [Example 55] | 100 to 1000 nM
CCOC[C@@]1(O)CC[C@@H]2C3CC[C@]4(C)[C@@H]([C@@H](C)NC(=O)c5ccc(C#N)cc5F)CCC[C@H]4[C@@H]3CC[C@@H]2C1 (stereo partly drawn) [Example 56] | 100 to 1000 nM
